# Read-outs that look alike come from different tables or passages of the source.
# What was measured:
# [1] = tested on: fatty acid synthesis pathway activity in MCF-7 human breast cancer cells; assay: [14C]acetate incorporation into total lipids; format: cell-based; conditions: for 14C (IC50): [14C]acetate incorporation into lipids; for IC50: Homo sapiens, MCF7, [14C]acetate incorporation into lipids
# Method: This assay measures the incorporation of [^14C]acetate into total lipids and is a measure of fatty acid synthesis pathway activity in vitro. It is utilized to measure inhibition of fatty acid synthesis in vitro.
# MCF-7 human breast cancer cells cultured as above, are plated at 5×10^4 cells per well in 24-well plates. Following overnight incubation, the compounds to be tested, solubilized in DMSO, are added at 5, 10, and 20 μg/ml in triplicate, with lower concentrations tested if necessary. DMSO is added to triplicate wells for a vehicle control. C75 is run at 5 and 10 μg/ml in triplicate as positive controls. After 4 hours of incubation, 0.25 μCi of [^14C]acetate (10 μl volume) is added to each well.
# After 2 hours of additional incubation, medium is aspirated from the wells and 800 μl of chloroform:methanol (2:1) and 700 μl of 4 mM MgCl2 is added to each well. Contents of each well are transferred to 1.5 Eppendorf tubes, and spun at full-speed for 2 minutes in a high-speed Eppendorf Microcentrifuge 5415D. After removal of the aqueous (upper) layer, an additional 700 μl of chloroform:methanol (2:1) and 500 μl of 4 mM MgCl2 are added to each tube and then centrifuged for 1 minutes as above. The aqueous layer is removed with a Pasteur pipette and discarded. An additional 400 μl of chloroform:methanol (2:1) and 200 μl of 4 mM MgCl2 are added to each tube, then centrifuged and aqueous layer is discarded. The lower (organic) phase is transferred into a scintillation vial and dried at 40° C. under N2 gas. Once dried, 3 ml of scintillant (APB #NBC5104) is added and vials are counted for ^14C. The Beckman Scintillation counter calculates the average cpm values for triplicates.
# The IC50 for the compounds is defined as the concentration of drug leading to a 50% reduction in [^14C]acetate incorporation into lipids compared to controls. This is determined by plotting the average cpm for each inhibitor concentration tested, performing linear regression and computing the best-fit line, r^2 values, and 95% confidence intervals. The average cpm values are computed by the Beckman scintillation counter (Model LS6500) for each compound concentration. Computation of linear regression, best-fit line, r^2, and 95% confidence intervals are calculated using Prism Version 3.0 (Graph Pad Software).
# [2] = target: T1, purified human FAS (Homo sapiens, UniProt P49327); assay: Measurement of FAS enzymatic activity (malonyl-CoA dependent NADPH oxidation); format: biochemical
# T1 construct: Human FAS was purified from cultured ZR-75-1 human breast cancer cells obtained from the American Type Culture Collection; endogenous in cells; host or cells: ZR-75-1 human breast cancer cells (ATCC); PEG precipitations and Mono Q anion exchange
# T1 sequence (P49327 whole entry): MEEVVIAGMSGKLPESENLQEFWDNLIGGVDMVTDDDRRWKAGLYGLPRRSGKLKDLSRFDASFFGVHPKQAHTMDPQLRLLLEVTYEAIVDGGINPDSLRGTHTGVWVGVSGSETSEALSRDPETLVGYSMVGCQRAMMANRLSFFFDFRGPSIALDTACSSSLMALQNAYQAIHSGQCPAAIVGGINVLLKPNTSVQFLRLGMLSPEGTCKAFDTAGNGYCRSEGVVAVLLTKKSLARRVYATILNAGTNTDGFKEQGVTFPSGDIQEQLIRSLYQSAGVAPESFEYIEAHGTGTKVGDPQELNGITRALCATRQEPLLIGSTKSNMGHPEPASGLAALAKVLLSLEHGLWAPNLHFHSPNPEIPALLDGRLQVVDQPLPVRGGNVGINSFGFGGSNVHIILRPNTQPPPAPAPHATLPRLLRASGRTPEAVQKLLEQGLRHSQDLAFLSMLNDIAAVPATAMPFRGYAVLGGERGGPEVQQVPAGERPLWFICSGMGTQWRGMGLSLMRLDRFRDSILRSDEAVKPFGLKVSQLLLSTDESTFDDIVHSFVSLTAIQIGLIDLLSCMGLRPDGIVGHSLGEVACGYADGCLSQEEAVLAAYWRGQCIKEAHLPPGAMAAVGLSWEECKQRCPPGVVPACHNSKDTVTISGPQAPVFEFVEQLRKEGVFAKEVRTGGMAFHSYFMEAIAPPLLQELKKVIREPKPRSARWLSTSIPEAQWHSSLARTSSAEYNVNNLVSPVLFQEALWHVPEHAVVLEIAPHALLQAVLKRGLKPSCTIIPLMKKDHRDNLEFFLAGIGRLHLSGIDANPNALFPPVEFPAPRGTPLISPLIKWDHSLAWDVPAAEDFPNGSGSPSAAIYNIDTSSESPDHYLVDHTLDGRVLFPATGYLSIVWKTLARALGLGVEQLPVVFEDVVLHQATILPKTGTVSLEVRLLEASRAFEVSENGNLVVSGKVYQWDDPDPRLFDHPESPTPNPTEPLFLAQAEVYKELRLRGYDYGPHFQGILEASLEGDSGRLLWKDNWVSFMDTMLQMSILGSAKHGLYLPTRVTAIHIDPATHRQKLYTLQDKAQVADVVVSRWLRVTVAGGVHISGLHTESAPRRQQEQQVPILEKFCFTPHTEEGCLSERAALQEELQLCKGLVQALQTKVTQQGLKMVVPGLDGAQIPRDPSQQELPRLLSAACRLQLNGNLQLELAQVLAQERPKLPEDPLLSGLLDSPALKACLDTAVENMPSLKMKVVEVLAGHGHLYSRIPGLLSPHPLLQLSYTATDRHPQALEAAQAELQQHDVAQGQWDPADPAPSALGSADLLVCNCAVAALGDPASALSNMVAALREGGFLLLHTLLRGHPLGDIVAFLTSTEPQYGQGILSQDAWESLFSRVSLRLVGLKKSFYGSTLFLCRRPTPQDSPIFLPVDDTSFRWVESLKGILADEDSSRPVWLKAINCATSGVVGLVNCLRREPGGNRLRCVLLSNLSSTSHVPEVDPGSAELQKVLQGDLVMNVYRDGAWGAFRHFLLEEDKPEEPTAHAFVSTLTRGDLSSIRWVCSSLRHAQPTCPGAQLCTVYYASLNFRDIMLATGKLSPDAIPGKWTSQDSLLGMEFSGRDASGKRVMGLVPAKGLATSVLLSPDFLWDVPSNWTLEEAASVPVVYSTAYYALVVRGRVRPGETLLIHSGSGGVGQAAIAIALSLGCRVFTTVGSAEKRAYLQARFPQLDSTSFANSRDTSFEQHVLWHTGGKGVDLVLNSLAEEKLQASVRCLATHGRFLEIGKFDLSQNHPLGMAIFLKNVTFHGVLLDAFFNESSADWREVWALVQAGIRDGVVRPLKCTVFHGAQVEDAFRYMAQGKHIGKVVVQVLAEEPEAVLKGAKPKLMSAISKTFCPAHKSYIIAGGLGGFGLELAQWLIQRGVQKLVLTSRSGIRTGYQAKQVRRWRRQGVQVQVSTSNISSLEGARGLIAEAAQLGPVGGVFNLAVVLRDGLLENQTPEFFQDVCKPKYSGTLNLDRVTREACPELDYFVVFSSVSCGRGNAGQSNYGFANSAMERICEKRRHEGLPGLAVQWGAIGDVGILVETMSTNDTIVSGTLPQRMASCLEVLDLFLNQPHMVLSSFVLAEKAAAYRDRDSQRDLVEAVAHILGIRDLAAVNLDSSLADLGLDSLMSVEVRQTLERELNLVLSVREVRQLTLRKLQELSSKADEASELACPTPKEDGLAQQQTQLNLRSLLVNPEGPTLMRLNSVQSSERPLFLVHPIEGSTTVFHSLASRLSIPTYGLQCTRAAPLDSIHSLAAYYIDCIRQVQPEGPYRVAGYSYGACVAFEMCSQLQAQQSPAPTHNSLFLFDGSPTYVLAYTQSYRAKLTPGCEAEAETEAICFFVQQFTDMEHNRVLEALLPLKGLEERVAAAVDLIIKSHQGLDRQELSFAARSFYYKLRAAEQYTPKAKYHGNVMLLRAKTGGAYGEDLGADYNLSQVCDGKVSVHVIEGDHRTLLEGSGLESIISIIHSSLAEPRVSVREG
# Method: Human FAS was purified from cultured ZR-75-1 human breast cancer cells obtained from the American Type Culture Collection. The procedure, adapted from Linn et al., 1981, and Kuhajda et al., 1994, utilizes hypotonic lysis, successive polyethyleneglycol (PEG) precipitations, and anion exchange chromatography. ZR-75-1 cells are cultured at 37° C. with 5% CO2 in RPMI culture medium with 10% fetal bovine serum, penicillin and streptomycin.
# Ten T150 flasks of confluent cells are lysed with 1.5 ml lysis buffer (20 mM Tris-HCl, pH 7.5, 1 mM EDTA, 0.1 mM phenylmethanesulfonyl fluoride (PMSF), 0.1% Igepal CA-630) and dounce homogenized on ice for 20 strokes. The lysate is centrifuged in JA-20 rotor (Beckman) at 20,000 rpm for 30 minutes at 4° C. and the supernatant is brought to 42 ml with lysis buffer. A solution of 50% PEG 8000 in lysis buffer is added slowly to the supernatant to a final concentration of 7.5%. After rocking for 60 minutes at 4° C., the solution is centrifuged in JA-20 rotor (Beckman) at 15,000 rpm for 30 minutes at 4° C. Solid PEG 8000 is then added to the supernatant to a final concentration of 15%. After the rocking and centrifugation is repeated as above, the pellet is resuspended overnight at 4° C. in 10 ml of Buffer A (20 mM K2HPO4, pH 7.4). After […] filtration, the protein solution is applied to a Mono Q 5/5 anion exchange column (Pharmacia). The column is washed for 15 minutes with buffer A at 1 ml/minute, and bound material is eluted with a linear 60-ml gradient over 60 minutes to 1 M KCl. FAS (MW˜270 kD) typically elutes at 0.25 M KCl in three 0.5 ml fractions identified using 4-15% SDS-PAGE with Coomassie G250 stain (Bio-Rad). FAS protein concentration is determined using the Coomassie Plus Protein Assay Reagent (Pierce) according to manufacturer's specifications using BSA as a standard. This procedure results in substantially pure preparations of FAS (>95%) as judged by Coomassie-stained gels.
# FAS activity is measured by monitoring the malonyl-CoA dependent oxidation of NADPH spectrophotometrically at OD340 in 96-well plates (Dils et al and Arslanian et al, 1975). Each well contains 2 μg purified FAS, 100 mM K2HPO4, pH 6.5, 1 mM dithiothreitol (Sigma), and 187.5 μM β-NADPH (Sigma). Stock solutions of inhibitors are prepared in DMSO at 2, 1, and 0.5 mg/ml resulting in final concentrations of 20, 10, and 5 μg/ml when 1 μl of stock is added per well. For each experiment, cerulenin (Sigma) is run as a positive control along with DMSO controls, inhibitors, and blanks (no FAS enzyme) all in duplicate.
# The assay is performed on a Molecular Devices SpectraMax Plus Spectrophotometer. The plate containing FAS, buffers, inhibitors, and controls are placed in the spectrophotometer heated to 37° C. Using the kinetic protocol, the wells are blanked on duplicate wells containing 100 μl of 100 mM K2HPO4, pH 6.5 and the plate is read at OD340 at 10 sec intervals for 5 minutes to measure any malonyl-CoA independent oxidation of NADPH. The plate is removed from the spectrophotometer and malonyl-CoA (67.4 μM, final concentration per well) and […] (61.8 μM, final concentration per well) are added to each well except to the blanks. The plate is read again as above with the kinetic protocol to measure the malonyl-CoA dependent NADPH oxidation. The difference between the Δ OD340 for the malonyl-CoA dependent and non-malonyl-CoA dependent NADPH oxidation is the specific FAS activity. Because of the purity of the FAS preparation, non-malonyl-CoA dependent NADPH oxidation is negligible.
# The concentration of compound yielding 50% inhibition of FAS is the IC50. Graphs of Δ OD340 versus time are plotted by the SOFTmax PRO software (Molecular Devices) for each compound concentration. Computation of linear regression, best-fit line, r^2, and 95% confidence intervals are calculated using Prism Version 3.0 (Graph Pad Software).
# [3] = marked (SB), abbreviation not defined, read-out: FAS (IC50) (SB) (converted)
Structure (SMILES),14C (IC50) [1],"IC50 [2, 3] [µM]",IC50 [1] [µg/mL],"IC50 ([2]; purified human FAS, OD340, read-out: FAS (IC50) (converted)) [µM]",Solubility remark under FAS (IC50) [2],"FAS (IC50) ([2]; purified human FAS, OD340)"
CCCCCCCCC1OC(=O)C(OC(=O)OCC)=C1C(=O)OCC (stereo not shown) [Compound 7],Neg,222,–,–,–,–
CCCCCCCCC1OC(=O)C(=O)C1C(=O)OCC (stereo not shown) [Compound 1],–,–,40.7 ± 7.1,65.1,–,–
CCCCCCCCC1OC(=O)C(OCc2ccccc2)=C1C(=O)OCC (stereo not shown) [Compound 5],Neg (stim),–,–,–,Solubility problems,Neg
CCCCCCCCC1OC(=O)C(OCC(=O)OCC)=C1C(=O)OCC (stereo not shown) [Compound 3],–,121,30,–,–,Neg

# Results, then the compound that gave them:
14C (IC50) [1],"IC50 [2, 3] [µM]",IC50 [1] [µg/mL],"IC50 ([2]; purified human FAS, OD340, read-out: FAS (IC50) (converted)) [µM]",Solubility remark under FAS (IC50) [2],"FAS (IC50) ([2]; purified human FAS, OD340)",Structure (SMILES)
Neg,–,–,–,Solubility problems,Neg,CCCCCCCCC1OC(=O)C(OC)=C1C(=O)OCC (stereo not shown) [Compound 4]
Neg,–,–,–,Solubility problems,Neg,C=CCOC1=C(C(=O)OCC)C(CCCCCCCC)OC1=O (stereo not shown) [Compound 6]
Neg,1230,–,–,–,Neg,CCCCC1OC(=O)C(O)=C1C(=O)OCC (stereo not shown) [Compound 2]
